Data set [1] addresses T1, α1A-adrenoceptor (prostate) (Rattus norvegicus, UniProt P43140).
T1 construct: Aorta, prostate and spleen tissues were isolated from urethane anaesthetized (1.5 gm/kg) male wistar rats; from tissue; host or cells: isolated prostate of male Wistar rats
T1 sequence (P43140 1-466): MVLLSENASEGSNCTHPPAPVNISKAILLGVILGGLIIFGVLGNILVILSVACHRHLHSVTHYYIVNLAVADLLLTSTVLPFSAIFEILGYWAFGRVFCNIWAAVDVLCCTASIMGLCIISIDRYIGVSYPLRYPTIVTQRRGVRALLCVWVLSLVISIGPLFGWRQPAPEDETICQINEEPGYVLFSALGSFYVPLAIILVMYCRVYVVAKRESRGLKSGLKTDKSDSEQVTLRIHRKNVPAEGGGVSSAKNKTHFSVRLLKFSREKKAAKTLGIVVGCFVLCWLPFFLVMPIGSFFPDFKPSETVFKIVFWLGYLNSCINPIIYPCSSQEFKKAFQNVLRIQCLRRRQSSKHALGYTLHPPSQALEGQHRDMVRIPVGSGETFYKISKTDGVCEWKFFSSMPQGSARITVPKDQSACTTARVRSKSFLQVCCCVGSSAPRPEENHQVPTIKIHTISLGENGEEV
Kind of data set: In vitro functional assay, phenylephrine-induced contraction of isolated prostate. The format is cell-based. The text has this:
(§1) In order to study selectivity of action of the present compounds towards different α-adrenoceptor subtypes, the ability of these compounds to antagonize α1-adrenoceptor agonist induced contractile response of aorta (α1D), prostate (α1A) and spleen (α1B) was studied. Aorta, prostate and spleen tissues were isolated from urethane anaesthetized (1.5 gm/kg) male wistar rats. Isolated tissues were mounted in organ bath containing Krebs Henseleit buffer of the following composition (mM): NaCl 118; KCl 4.7; CaCl2 2.5; MgSO4·H2O 1.2; NaHCO3 25; KH2PO4 1.2; glucose 11.5. Buffer was maintained at 37° C. and aerated with a mixture of 95% O2 and 5% CO2. A resting tension of 2 g (aorta) or 1 g (spleen and prostate) was applied to tissues. Contractile response was monitored using a force displacement transducer and recorded on chart recorders. Tissues were allowed to equilibrate for 2 hours. At the end of equilibration period, concentration response curves to norepinephrine (aorta) and phenylephrine (spleen and prostate) were obtained in the absence and presence of the tested compound (at concentrations of 0.1, 1 and 10 μM). Antagonist affinity was calculated and expressed as PKB values in Table 1.

Data set [2] has as its target T2, α1A-adrenoceptor (Rattus norvegicus, UniProt P43140).
T2 construct: from tissue; host or cells: rat submaxillary gland membranes
T2 sequence (P43140 1-466): T1 sequence (P43140 1-466)
In words: Receptor binding assay, [3H]prazosin, rat submaxillary membranes. The procedure: (§2) Receptor binding assays, (RBA's) were performed for native α1-adrenoceptors. Rat submaxillary and rat liver membrane preparations were used to assess the affinity for α1A and α1B subtypes, respectively. Aliquots of membrane protein ([…]) were incubated in a final volume of […] assay buffer (50 mM Tris, 0.5 mM EDTA at pH 7.4) with 0.5 nM [^3H] prazosin for 60 mins at 28 ° C. Reaction was stopped by rapid filtration on Millipore filters. Filters were dried and bound radioactivity counted. Non-specific binding was determined in the presence of 0.3 mM prazosin.

In data set [3] the target is T3, α1D-adrenoceptor (aorta) (Rattus norvegicus, UniProt P23944).
T3 construct: Aorta, prostate and spleen tissues were isolated from urethane anaesthetized (1.5 gm/kg) male wistar rats; from tissue; host or cells: isolated aorta of male Wistar rats
T3 sequence (P23944 1-561): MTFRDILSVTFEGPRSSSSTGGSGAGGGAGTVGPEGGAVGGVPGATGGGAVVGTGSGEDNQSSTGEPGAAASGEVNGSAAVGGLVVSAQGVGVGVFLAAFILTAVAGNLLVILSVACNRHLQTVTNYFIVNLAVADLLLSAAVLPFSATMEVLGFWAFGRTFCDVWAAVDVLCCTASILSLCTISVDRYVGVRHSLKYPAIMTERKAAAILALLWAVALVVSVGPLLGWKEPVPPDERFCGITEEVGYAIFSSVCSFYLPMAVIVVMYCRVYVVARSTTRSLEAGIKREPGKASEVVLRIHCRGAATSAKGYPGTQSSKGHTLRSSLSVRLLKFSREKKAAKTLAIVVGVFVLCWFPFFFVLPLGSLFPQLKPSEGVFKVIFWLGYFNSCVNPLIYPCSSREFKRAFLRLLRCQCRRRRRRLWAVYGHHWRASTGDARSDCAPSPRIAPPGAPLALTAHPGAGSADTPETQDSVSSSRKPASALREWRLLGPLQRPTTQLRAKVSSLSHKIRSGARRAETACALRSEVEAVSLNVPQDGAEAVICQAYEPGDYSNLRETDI
Kind of data set: In vitro functional assay, norepinephrine-induced contraction of isolated aorta. The format is cell-based.
Excerpt: as §1

Data set [4] addresses T4, α1B-adrenoceptor (Rattus norvegicus, UniProt P15823).
T4 construct: from tissue; host or cells: rat liver membranes
T4 sequence (P15823 1-515): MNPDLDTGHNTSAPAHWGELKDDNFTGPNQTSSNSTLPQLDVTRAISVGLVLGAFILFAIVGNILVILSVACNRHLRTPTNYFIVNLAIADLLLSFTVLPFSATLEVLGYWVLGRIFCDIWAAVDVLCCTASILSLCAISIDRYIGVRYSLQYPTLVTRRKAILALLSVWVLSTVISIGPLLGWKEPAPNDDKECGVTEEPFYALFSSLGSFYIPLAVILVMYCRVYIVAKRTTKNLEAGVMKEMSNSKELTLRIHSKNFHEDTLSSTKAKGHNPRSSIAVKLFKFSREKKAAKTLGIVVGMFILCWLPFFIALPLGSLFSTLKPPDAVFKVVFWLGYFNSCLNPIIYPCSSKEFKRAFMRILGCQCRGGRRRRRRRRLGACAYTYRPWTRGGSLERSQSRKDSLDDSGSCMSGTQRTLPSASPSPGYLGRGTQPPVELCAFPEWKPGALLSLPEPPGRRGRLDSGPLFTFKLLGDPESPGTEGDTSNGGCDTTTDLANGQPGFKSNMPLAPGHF
Kind of data set: Receptor binding assay, [3H]prazosin, rat liver membranes. Conditions: rat liver membranes, 0.5 nM [3H]prazosin; read-out: RBA (Ki nM) α1B. How it is done: as §2

Data set [5] has as its target T5, α1B-adrenoceptor (spleen) (Rattus norvegicus, UniProt P15823).
T5 construct: Aorta, prostate and spleen tissues were isolated from urethane anaesthetized (1.5 gm/kg) male wistar rats; from tissue; host or cells: isolated spleen of male Wistar rats
T5 sequence (P15823 1-515): T4 sequence (P15823 1-515)
Kind of data set: In vitro functional assay, phenylephrine-induced contraction of isolated spleen. The format is cell-based.
Excerpt: as §1

Where [6] appears, read: rat prostate, phenylephrine, read-out: In Vitro Functional Assay (pKB) α1A (converted).
Where [7] appears, read: rat submaxillary membranes, 0.5 nM [3H]prazosin, read-out: RBA (Ki nM) α1A.
Setting [8] is: rat aorta, norepinephrine, read-out: In Vitro Functional Assay (pKB) α1D (converted).
Setting [9] is: rat spleen, phenylephrine, read-out: In Vitro Functional Assay (pKB) α1B (converted).

Counter-ions that a name gives are not always drawn. Like-named read-outs stand apart in the source and are kept apart here.

Consider `O=C1CCCC(=O)N1CCCN1CCN(c2cccc(Cl)c2)CC1` (as salt: hydrochloride) [Compound 20, 1-[4-(3-Chlorophenyl)piperazin-1-yl]-3-(2,6-dioxopiperidin-1-yl)propane], for which the melting point (usually the temperature of the solid-liquid transition) was in the range of 214 to 215 °C.
The same measure, in the same setting: next, `O=C1CCCC(=O)N1CCCN1CCN(c2cccc(C(F)(F)F)c2)CC1` (as salt: hydrochloride) [Compound 16, 1-[4-(3-Trifluoromethylphenyl)piperazin-1-yl]-3-(2,6-dioxopiperidin-1-yl)propane]: 228 to 229 °C; `O=C1CCC(=O)N1CCCN1CCN(c2cccc(C(F)(F)F)c2)CC1` (as salt: hydrochloride) [Compound 3, 1-[4-(3-Trifluoromethylphenyl)piperazin-1-yl]-3-(2,5-dioxopyrrolidin-1-yl)propane]: 218 to 220 °C.
Consider `Cc1ccc(N2CCN(CCCN3C(=O)CCCC3=O)CC2)cc1C` [Compound 21, 1-[4-(3,4-Dimethylphenyl)piperazin-1-yl]-3-(2,6-dioxopiperidin-1yl)propane], for which the Kb was 316 nM in data set [1] (setting [6]), 316 nM in data set [3] (setting [8]) and 200 nM in data set [5] (setting [9]). For the same compound, the inhibitory constant (Ki) (commonly a measure of affinity in units of concentration, obtained from inhibition or displacement) was determined as 2130 nM in data set [2] (setting [7]) and 176 nM in data set [4].
On to `O=C1CCCC(=O)N1CCCN1CCN(c2ccccc2F)CC1` [Compound 17, 1-[4-(2-Fluorophenyl)piperazin-1-yl]-3-(2,6-dioxopiperidin-1-yl)propane], for which the values for the Kb in data set [1], in data set [3] and in data set [5] were 10 nM, 12.6 nM and 79.4 nM, respectively. Further, the results for the Ki in data set [2] and in data set [4] were 21 nM and 396 nM, respectively.
In turn, `COc1ccccc1N1CCN(CCN2C(=O)CCC2=O)CC1` (as salt: hydrochloride) [Compound 10, 1-[4-(2-Methoxyphenyl)piperazin-1-yl]-2-(2,5-dioxopyrrolidin-1-yl)ethane] gave a melting point of 232 to 234 °C.
Compound `O=C1CCCC(=O)N1CCCN1CCN(c2ccccn2)CC1` (as salt: hydrochloride) [Compound 19, 1-[4-(2-Pyridyl)piperazin-1-yl)-3-(2,6-dioxopiperidin-1-yl)propane] had a melting point of 244 to 245 °C.
With `COc1ccccc1N1CCN(CCN2C(=O)CCC2=O)CC1` [Compound 10, 1-[4-(2-Methoxyphenyl)piperazin-1-yl]-2-(2,5-dioxopyrrolidin-1-yl)ethane], the Kb was 126 nM in data set [1] (setting [6]), 126 nM in data set [3] (setting [8]) and 200 nM in data set [5] (setting [9]). The Ki was found to be 1600 nM in data set [2] (setting [7]) and 2350 nM in data set [4].
For the compound `Cc1ccccc1N1CCN(CCCN2C(=O)CCCC2=O)CC1` [Compound 18, 1-[4-(2-Methylphenyl)piperazin-1-yl]-3-(2,6-dioxopiperidin-1yl)propane], the Kb in data set [1] (setting [6]) is 6.31 nM; in data set [3] (setting [8]) it was 3.16 nM; in data set [5] (setting [9]) it was 3160 nM. Further, the Ki in data set [2] (setting [7]) is 9 nM; in data set [4], 267 nM.
Turning to `O=C1CCC(=O)N1CCCN1CCN(c2cccc(Cl)c2)CC1` [Compound 5, 1-[4-(3-Chlorophenyl)piperazin-1-yl]-3-(2,5-dioxopyrrolidin-1-yl)propane], the Kb in data set [1] (setting [6]) is 5010 nM; in data set [3], 100 nM; in data set [5] (setting [9]), 5010 nM. For the same compound, the Ki in data set [2] (setting [7]) amounted to 106 nM; in data set [4], 175 nM.
`O=C1CCC(=O)N1CCCN1CCN(c2cccc(Cl)c2)CC1` (as salt: hydrochloride) [Compound 5, 1-[4-(3-Chlorophenyl)piperazin-1-yl]-3-(2,5-dioxopyrrolidin-1-yl)propane] gave a melting point of 230 to 231 °C.
For `O=C1CCC(=O)N1CCCN1CCN(c2ncccn2)CC1` [Compound 6, 1-[4-(2-Pyrimidyl)piperazin-1-yl]-3-(2,5-dioxopyrrolidin-1-yl)propane], the Kb is 20000 nM in data set [1] (setting [6]), 316 nM in data set [3] (setting [8]) and 5010 nM in data set [5] (setting [9]). For the same compound, the Ki is 1140 nM in data set [2] (setting [7]) and greater than 2500 nM in data set [4].
Compound `O=C1CCC(=O)N1CCCN1CCN(c2ccccn2)CC1` (as salt: hydrochloride) [Compound 4, 1-[4-(2-Pyridyl)piperazin-1-yl]-3-(2,5-dioxopyrrolidin-1-yl)propane] yielded a melting point of 261 to 262 °C.

The values are drawn from patent US6410735B1, “1-(4-arylpiperazin-1-y1)-ω-[N-(α,ω-dicarboximido)]-alkanes useful as uro-selective α1-adrenoceptor blockers” (Ranbaxy Laboratories Limited, priority 1997, dated 2002).
